# PubChem BioAssay AID504703 (Southern Research Specialized Biocontainment Screening …, 2011)
# Values joined by “and” are separate entries in the source; they are usually repeats but may differ in a detail not shown here. Equal entries are not always repeated. Active and inactive are the calls of the source. No rule for the calls is given here.
# System: M. tuberculosis H37Rv growth inhibition with meropenem
# Assay: H37Rv growth inhibition with and without meropenem, dose response, set 2 (AID 504703);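 also: growth ran 7 days at 37 °C then overnight with Alamar Blue before reading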
# [1] = M. tuberculosis H37Rv growth inhibition, measured here: IC50 without meropenem
# [2] = M. tuberculosis H37Rv growth inhibition, measured here: IC90 without meropenem
# [3] = measured here: IC90 with meropenem
SMILES,IC50 [1],IC90 [2] [µM],IC90 [3] [µM],IC50
S=C(Nc1ccccc1)Nc1ccc(Cl)cn1,> 18.8 µM and 17.3 µM,> 25,> 25,
N/C(=N\c1nc2ccccc2o1)NC(=O)c1ccc(F)cc1,21.6 µM,> 25,> 25,9.64 µM (inactive)
CC(C)(Oc1ccc(Cl)cc1)C(=O)Nc1nc2ccccc2s1,> 25 µM,> 25,,
COc1ccccc1C(=O)N/C(N)=N/c1nc2ccccc2o1,> 25 µM,> 25,,
CC(Oc1ccccc1)C(=O)Nc1nc2ccc(S(C)(=O)=O)cc2s1 (centres undefined),> 25 µM,> 25,,
Cc1cc(C)c(OCC(=O)Nc2nc3ccccc3s2)c(Cl)c1,> 25 µM,> 25,,
CCOc1ccc2[nH]ccc2c1,> 25 µM,> 25,,
Cc1onc(-c2c(Cl)cccc2Cl)c1/C(N)=N/OC(=O)C1CC1,14.7 µM,> 25,> 25,
c1ccc(-c2cc(N3CCOCC3)nc3ccccc23)cc1,> 25 µM,> 25,> 18.8,10 µM (inactive)
O=C(COC(=O)C1CC1)c1c[nH]c2ccccc12,1.15 µM and 2.08 µM,> 6.25,> 25,
Cc1ccc(OCC(=O)Nc2nc3c(Cl)cccc3s2)cc1,> 25 µM,> 25,,
